Measurements reported in PubChem BioAssay AID504655 (Southern Research Specialized Biocontainment Screening …, 2011).
pIC50: −log10 of the molar value. Active and inactive are the calls of the source. No rule for the calls is given here.

System: HEp-2 cells, RSV CPE inhibition, cell viability
Assay: inhibitors of RSV cytopathic effect, dose response, cell-based, HEp-2, synthesized compounds, set 7 (AID 504655)

Structure (SMILES)	IC50	pIC50
Cc1ccc(Cn2c(=O)n(Cc3ccc(C(=O)NCc4ccccc4)cc3)c(=O)c3ccccc32)cc1	> 50 µM (inactive)	–
O=C(NCc1cccc(Cl)c1)C1CCN(S(=O)(=O)c2cccc3nonc23)CC1	> 50 µM (inactive)	–
Cc1ccc(CNC(=O)C2CCN(S(=O)(=O)c3cccc4nonc34)CC2)c(C)c1	> 50 µM (inactive)	–
CNC(=O)c1ccc(Cn2c(=O)c3ccccc3n(Cc3ccc(C)cc3)c2=O)cc1	–	5.65
COCCCNC(=O)c1ccc(Cn2c(=O)c3ccc(C)cc3n(Cc3ccc(C)cc3)c2=O)cc1	> 50 µM (inactive)	–
COc1ccccc1CNC(=O)[C@@H]1CCCN1S(=O)(=O)c1cccc2nonc12	> 50 µM (inactive)	–
COCCCNC(=O)c1ccc(Cn2c(=O)c3ccc(C(F)(F)F)cc3n(Cc3ccc(C)cc3)c2=O)cc1	> 50 µM (inactive)	–
Cc1ccc(Cn2c(=O)n(Cc3ccc(C(=O)N(C)C)cc3)c(=O)c3ccccc32)cc1	> 50 µM (inactive)	–
O=C(NCc1ccc(Cl)cc1)C1CCN(S(=O)(=O)c2cccc3nonc23)CC1	> 50 µM (inactive)	–
Cc1ccc(Cn2c(=O)n(Cc3ccc(C(=O)N4CCOCC4)cc3)c(=O)c3ccccc32)cc1	> 50 µM (inactive)	–
COCCCNC(=O)c1ccc(Cn2c(=O)c3ccc(OC)cc3n(Cc3ccc(C)cc3)c2=O)cc1	> 50 µM (inactive)	–
COc1ccc(C)c(NC(=O)[C@@H]2CCCN2S(=O)(=O)c2cccc3cccnc23)c1	–	5.03
COc1ccccc1NC(=O)[C@@H]1CCCN1S(=O)(=O)c1cccc2nonc12	> 50 µM (inactive)	–
COCCNC(=O)c1ccc(Cn2c(=O)c3ccccc3n(Cc3ccc(C)cc3)c2=O)cc1	–	5.52
Cc1ccc(Cn2c(=O)n(Cc3ccc(C(=O)N4CCCCC4)cc3)c(=O)c3ccccc32)cc1	> 50 µM (inactive)	–
Cc1ccc(Cn2c(=O)n(Cc3ccc(C(=O)Nc4ccccc4)cc3)c(=O)c3ccccc32)cc1	> 50 µM (inactive)	–
Cc1ccc(Cl)cc1NC(=O)[C@@H]1CCCN1S(=O)(=O)c1cccc2cccnc12	–	5.21
Cc1ccc(Cn2c(=O)n(Cc3ccc(C(=O)N4CCCC4)cc3)c(=O)c3ccccc32)cc1	> 50 µM (inactive)	–
Cc1ccc(Cn2c(=O)n(Cc3ccc(C(=O)NC4CCCCC4)cc3)c(=O)c3ccccc32)cc1	> 50 µM (inactive)	–
Cc1ccc(NC(=O)[C@@H]2CCCN2S(=O)(=O)c2cccc3nonc23)c(C)c1	> 50 µM (inactive)	–
